Our source for the antibacterial activity and MIC values is patent US4169941A, “Derivatives of XK-88-5 and process for the production thereof” (Abbott Laboratories, priority 1976, dated 1979).

Converted amounts (≈) assume the structure as drawn. Like-named read-outs stand apart in the source and are kept apart here.

Assay [1] concerns various Gram-positive and Gram-negative bacteria. Conditions: in words; parent antibiotic, background; cited from earlier work.
The test system of assay [2] is Klebsiella pheumoniae KY 4275. Put plainly: MIC, agar dilution method (pH 8.0). It counts as cell-based. Conditions: KY4275, read-out: minimum inhibitory concentration (MIC). An excerpt: (§1) The following Table 1 illustrates minimum inhibitory concentrations (MIC) of 2"-N-formyl-XK-88-5 against various Gram-positive and Gram-negative bacteria determined by agar dilution method (pH 8.0).

A further assay concerns Erwinia aroideae KY 3241. In words: MIC, agar dilution method (pH 8.0). It counts as cell-based. The note with it: Pectobacterium carotovorum, KY3241, read-out: minimum inhibitory concentration (MIC).
Source text: as §1

Assay [3] relates to Bacillus subtilis KY 4273. Put plainly: MIC, agar dilution method (pH 8.0). It counts as cell-based. Conditions: KY4273, read-out: minimum inhibitory concentration (MIC).
Source text: as §1
On the technique in general: In agar dilution the substance is mixed into plates at graded concentrations.

Assay [4] relates to Salmonella typhosa KY 4278. Put plainly: MIC, agar dilution method (pH 8.0). It counts as cell-based. The note with it: Salmonella enterica, pH 8, read-out: minimum inhibitory concentration (MIC).
Source text: as §1

Assay [5] relates to Pseudomonas alkaligenes KY 4656. In words: MIC, agar dilution method (pH 8.0). It counts as cell-based. The note with it: KY4656, read-out: minimum inhibitory concentration (MIC).
Source text: as §1

The subject of a further assay is Shigella sonnei KY 4281. Put plainly: MIC, agar dilution method (pH 8.0). Conditions: KY4281, read-out: minimum inhibitory concentration (MIC). Format: cell-based.
Source text: as §1

Assay [6] deals with Staphylococcus aureus Ky 4279. Put plainly: MIC, agar dilution method (pH 8.0). Format: cell-based. The note with it: KY4279, read-out: minimum inhibitory concentration (MIC).
Source text: as §1

A further assay relates to Proteus vulgaris KY 4277. In words: MIC, agar dilution method (pH 8.0). It counts as cell-based. Conditions: KY4277, read-out: minimum inhibitory concentration (MIC).
Source text: as §1

A further assay relates to Vibrio percolans KY 4174. In words: MIC, agar dilution method (pH 8.0). Format: cell-based. Conditions: Comamonas terrigena, KY4174, read-out: minimum inhibitory concentration (MIC).
Source text: as §1

The next assay relates to Escherichia coli KY 4271. In words: MIC, agar dilution method (pH 8.0). It counts as cell-based. The note with it: KY4271, read-out: minimum inhibitory concentration (MIC).
Source text: as §1

For assay [7], the system named is various Gram-positive and Gram-negative bacteria. Put plainly: antibacterial activity (general statement). Conditions: in words. Format: cell-based.
Source text: as §1

Consider `COC1COC(OC2C(N)CC(N)C(OC3OC(CN)CC(O)C3N)C2O)C(N)C1N` (stereo not drawn) [XK-88-5], for which the antibacterial activity entry in assay [1] is listed as “high antibacterial activity”.

For `COC1COC(OC2C(N)CC(N)C(OC3OC(CN)CC(O)C3N)C2O)C(NC=O)C1N` (stereo not drawn) [2"-N-formyl-XK-88-5], the MIC is 0.64 µg/mL (≈ 1.34 µM) in assay [2]; 1.25 µg/mL (≈ 2.61 µM) with Erwinia aroideae KY 3241; 0.32 µg/mL (≈ 0.669 µM) in [3]; 2.5 µg/mL (≈ 5.22 µM) in assay [4]; 2.5 µg/mL (≈ 5.22 µM) in [5]; 2.5 µg/mL (≈ 5.22 µM) in the assay on Shigella sonnei KY 4281. The MIC in assay [6] was found to be 0.32 µg/mL (≈ 0.669 µM); with Proteus vulgaris KY 4277 it was 2.5 µg/mL (≈ 5.22 µM); in the assay on Vibrio percolans KY 4174 it was 10 µg/mL (≈ 20.9 µM); with Escherichia coli KY 4271 it was 2.5 µg/mL (≈ 5.22 µM). Further, the antibacterial activity entry in assay [7] is listed as “strong antibacterial activity”.
